Source: patent US6410054B1, “Immediate release eplerenone compositions” (G. D. Searle & Co., priority 1998, dated 2002)

Key:
[1] = Single dose study: safety; assay type: in vivo; conditions: single 10-1000 mg oral doses, healthy male humans
Procedure: Antialdosterone activity was determined based on urine levels of sodium and potassium following repeated administration of fludrocortisone. Safety was determined on the basis of laboratory tests, vital signs, and the occurrence and types of adverse events.

ADME study: safety = assay type: in vivo, humans; conditions: single 100 mg oral solution
Procedure: The study employed eight healthy male humans. Each subject received a single 100 mg oral dose of a solution of [^14C]eplerenone (specific activity 0.75 μCi/mg). Plasma, saliva, breath, urine and fecal samples were collected at predetermined intervals and analyzed for sample radioactivity and the concentration of eplerenone and its open lactone ring form. Safety was determined on the basis of laboratory tests, vital signs, and the occurrence and types of adverse events.
Blood samples were collected at −0.5 (predose), 0.5, 1, 1.5, 2, 2.5, 3, 4, 6, 8, 12, 16, 24, 36, 48, 72 and 96 hours post dose. […] Individual fecal samples were collected beginning immediately after dosing and continuing through 0800 hours on day 8. In addition, one predose fecal sample was provided. Saliva samples were taken at 0.5 hour predose and at 0.5, 1, 2, 4, 6, 12, and 24 hours postdose. Breath samples were taken at 0.5 hour predose and at 1, 2, 3, 4, 6, 8, 12, 24, 36, 48 and 72 hours postdose.

renin and aldosterone = assay: Treatment of hypertension study: plasma renin and serum aldosterone; assay type: in vivo, humans
Procedure: The safety and efficacy of a range of doses of eplerenone in the treatment of hypertension relative to placebo were evaluated in a multi-center, randomized, double-blind, placebo-lead-in, parallel group study. […] Four hundred and seventeen patients were randomized to one of eight treatments: (i) placebo BID; […] (iv) eplerenone 400 mg QD; (v) eplerenone 25 mg BID; […] The primary efficacy variable was the change in cuff diastolic blood pressure (ADBP; sitting) measured at trough plasma levels after eight weeks of double blind treatment. The secondary variables measured were the change in trough cuff systolic blood pressure (ΔSBP; sitting), change in 24 hour mean diastolic blood pressure (ΔDBP), and change in 24 hour mean systolic blood pressure (ΔSBP). […] Changes in plasma renin and serum aldosterone after eight weeks of dosing were also analyzed as secondary measures of efficacy.

COC(=O)C1CC2=CC(=O)CCC2(C)C23OC2CC2(C)C(CC[C@@]24CCC(=O)O4)C13 (stereo partly drawn) [eplerenone, methyl hydrogen 9,11α-epoxy-17α-hydroxy-3-oxopregn-4-ene-7α,21-dicarboxylate, γ-lactone]
changes in physical examinations, vital signs or clinical laboratory results [1]: no clinically significant changes
severity of adverse events [1]: mild
changes in physical examinations, vital signs or clinical laboratory test results (ADME study: safety): no clinically significant changes
serious adverse effects (ADME study: safety): no serious adverse effects
Plasma Renin Active Mean Change From Baseline (renin and aldosterone; 25 mg BID): 1.2 mU/L
Serum Aldosterone Mean Change From Baseline (renin and aldosterone; 25 mg BID): 7.3 ng/dL
Plasma Renin Active Mean Change From Baseline (renin and aldosterone; 50 mg BID): 15.0 mU/L
Serum Aldosterone Mean Change From Baseline (renin and aldosterone; 50 mg BID): 10.0 ng/dL
Plasma Renin Active Mean Change From Baseline (renin and aldosterone; 50 mg QD): 2.9 mU/L
Serum Aldosterone Mean Change From Baseline (renin and aldosterone; 50 mg QD): 6.0 ng/dL
Plasma Renin Active Mean Change From Baseline (renin and aldosterone; 100 mg QD): 13.9 mU/L
Serum Aldosterone Mean Change From Baseline (renin and aldosterone; 100 mg QD): 10.5 ng/dL
Plasma Renin Active Mean Change From Baseline (renin and aldosterone; 200 mg BID): 32.0 mU/L
Serum Aldosterone Mean Change From Baseline (renin and aldosterone; 200 mg BID): 32.8 ng/dL
Plasma Renin Active Mean Change From Baseline (renin and aldosterone; 400 mg QD): 21.2 mU/L
Serum Aldosterone Mean Change From Baseline (renin and aldosterone; 400 mg QD): 19.2 ng/dL
aldosterone compared to placebo (renin and aldosterone; eight weeks of dosing): increases
total and active renin levels (renin and aldosterone; eight weeks of dosing): increases
